Results as given in US20100240589A1, “DIASTEREOMERIC PEPTIDES USEFUL AS INHIBITORS OF MEMBRANE PROTEIN ASSEMBLY” (YEDA RESEARCH AND DEVELOPMENT CO., LTD. AT THE WEIZMANN …, priority 2003, published 2010).
Read-outs that look alike come from different tables or passages of the source. Ends that are not written are not given here.

How the values were obtained:
[1] = tested on: fusion of HIV-1 gp120-41 expressing TF228 cells with CD4+CXCR4+3T3 mouse fibroblasts; test: Dye transfer fusion assay (cell-cell fusion); assay type: cell-based; settings: for inhibition of HIV-1 mediated cell-cell fusion: dye transfer, co-culture 2 hours at 37° C.; for inhibition compared with the wild-type peptide: dye transfer fusion assay
Experimental: Peptide inhibition of cell-cell fusion was assayed by monitoring the redistribution of two fluorescent probes: a water-soluble probe and a lipophilic probe, between target and effector cells upon their co-incubation with these probes (Munoz-Barroso I., et al., 1998, J. Cell Biol. 140: 315-323). The HIV-1 gp120-41 expressing TF228 cells (Jonak, Z. L., et al., 1993, AIDS Res. Hum. Retrovir. 9:23-32) were labeled with either calcein or a green fluorescent fatty acid as follows: HIV-1 gp120-41 expressing TF228 cells were incubated with 1 μM calcein for 60 minutes at 37° C., and then washed and resuspended at 10^5 cells/ml in RPMI medium. Alternatively, the HIV-1 gp120-41 expressing TF228 cells were labeled with the fatty acid 4,4-difluoro-5-methyl-4-bora-3a, 4a-diaza-s-indacene-3-dodecanoic acid (C1-BODIPY-C12; (Molecular Probes, Eugene, Oreg.)) as follows: HIV-1 gp120-41 expressing TF228 cells were seeded at 10^5 cells/ml in RPMI medium containing 10 mg/ml of the C1-BODIPY-C12 and grown for three days prior to the experiment. The fatty acid was eventually metabolized into phospholipid, primarily phosphatidylcholine. The cells where then washed and resuspended at 10^5 cells/ml. The target cells, CD4+CXCR4+3T3 mouse fibroblasts, were plated at 10^5 cells/ml the night before the experiment. The next day, the CD4+CXCR4+3T3 cells were labeled with 20 μM [5-(and -6) ((4-Chloromethyl)benzoyl)amino)) tetramethylrhodamine (CMTMR) for one hour at 37° C., washed several times and combined with the effector cells (1:3 target-effector cell ratio). Different concentrations of peptides, dissolved in PBS or Tris buffer, were then added. The cells were co-cultured for 2 hours at 37° C. in 12 well plates (Costar, Cambridge, Mass.). Phase and fluorescent images were collected using an Olympus IX70 coupled to a CCD camera (Princeton Instruments, Trenton, N.J.) with a 20× objective lens. An 82000 optical filter cube (Chroma Technology Corp., Brattleboro, Vt.) was used for the excitation of calcein (494/517), BODIPY (500/510), and CMTMR (541/565). Three images per well were collected and then analyzed using metamorph software (Universal Imaging, WestChester, Pa.) for dye transfer from the donor to the acceptor cell. The scoring of fusion events was conducted as described by Munoz-Barroso et al. (ibid.).

[2] = biological target: wt-fusion peptide (N-terminal 33 segment of gp41) (Human immunodeficiency virus type 1 group M subtype B, UniProt P03377); settings: NBD-wt donor 0.05 μM, Rho acceptor 0.025-0.35 μM, SUV 400 μM
Experimental: The self-association of the peptides in their membrane-bound state was monitored by employing resonance energy transfer measurements. Fluorescence resonance energy transfer was measured using NBD-labeled peptides serving as donors and Rho (rhodamine)-labeled peptides serving as energy acceptors. Fluorescence spectra were obtained at room temperature with excitation set at 467 nm using a 10 nm slit width. In a typical experiment, donor peptide (final concentration 0.04 μM) was added to a dispersion of phosphatidylcholine/cholesterol (PC/Chol; 10:1 w/w) small unilamellar vesicles (SUV; 224 μM) in PBS, followed by the addition of acceptor peptide in several sequential doses. Fluorescence spectra were obtained before and after addition of the acceptor. The efficiency of energy transfer (E) was determined by measuring the decrease in the quantum yield of the donor as a result of the presence of acceptor. E was determined experimentally from the ratio of the fluorescence intensities of the donor in the presence (Ida) and in the absence (Id) of the acceptor, at the donor's maximum emission wavelength. The percentage of transfer efficiency (E), is given by:
The contribution of buffer and vesicles was subtracted from all measurements. […] The acceptor-peptide was added only after the donor-peptide was already bound to the membrane, thus decreasing association in solution. […]

activated T-cells = test: Binding of NBD-labeled fusion peptides to T-cells (confocal fluorescence microscopy); assay type: cell-based; design: dose or concentration left out as unconfirmed; settings: 30 minutes, room temperature
Experimental: Nitrobenzofurazane (NBD)-labeled wt-fusion peptide or NBD-labeled diastereomeric fusion peptide (herein designated IFFA) were studied for their binding to activated T-cells as follows: Activated T-cells (10,000/ml) were incubated for 30 minutes at room temperature with NBD labeled wt- or IFFA-fusion peptides (0.5 mM final concentration). The cells were washed twice with PBS (100 ml) in order to remove excess of unbound peptide. The cells were then observed under the fluorescent confocal microscope. NBD excitation was at 488 nm with the laser set at 2% power to prevent bleaching of the fluorophore. Fluorescence data was collected from 525 nm and up.

[3] = tested on: ToxR GPA (GPA transmembrane domain); test: ToxR GPA heterodimer formation (β-galactosidase reporter); assay type: cell-based
Experimental: The ToxR GPA plasmid construct is a simple and robust method for detecting homodimerization of transmembrane domains in vivo (Langosch, D., et al., 1996, J. Mol. Biol. 263: 525-530). The detection is done through the signal of a β-galactosidase reporter gene. Heterodimerization can be detected through addition of an exogenous peptide. […] The 2D-GPA peptide of SEQ ID NO:11 was exogenously added to the system in increasing doses (0.5-20 μM; FIG. 5). […] The inhibition was calculated as follows: I is the inhibitory ability of the peptide, Apeptide is the activity of ToxR-GPA in the presence of the peptide, Amax is the maximal activity of ToxR-GPA without peptide, and Abaseline is the baseline activity of the monomer A16 plasmid, a plasmid containing a peptide which consists of 16 amino acids all of which are alanine (Langosch, D., et al., 1996, J. Mol. Biol. 263: 525-530).
IC50 was calculated by fitting normalized data to the Langmuir equation (equation 3) in the Origin 6.0 commercial program.
Were A represents ToxR-GPA transcription factor, B represents the exogenous peptide, I represents inhibition of beta-galactosidase activity (1-activity) and K is a scaling constant.

wt-GPA = biological target: T1, wt-GPA (Homo sapiens, UniProt P02724); test: FRET between wt-GPA and diastereomer in LUV; assay type: binding; settings: donor 0.1 μM, acceptor 0.01-0.05 μM, LUV 340 μM
T1 construct: ITLIIFGVMAGVIGT; fluorophore label (NBD); made in house; host or cells: chemical peptide synthesis
Experimental: Wild type (wt)-GPA and the 2D-GPA analog were synthetically labeled with Rhodamine and NBD, respectively, and fluorescent resonance energy transfer (FRET) experiments were performed with NBD-labeled peptides serving as energy donors and Rhodamine-labeled peptides serving as energy acceptors. […] In a typical experiment, a donor peptide (final concentration 0.1 μM) was added to a dispersion of large unilamellar vesicles (LUV; 340 μM) in PBS. This was followed by the addition of an acceptor peptide in increasing doses ranging from 0.01 to 0.05 μM. At this peptide to lipid ratios, complete membrane binding is expected for all the transmembrane peptides. […] The percentage of transfer efficiency (E), is given by:
The R0 for this pair of donor-acceptor fluorophores is around 51 Å.

[4] = tested on: ToxR GPA construct in FHK12 bacteria; test: ToxR receptor expression levels (Western blot); assay type: cell-based; settings: anti maltose binding protein
Experimental: Bacteria FHK12 cells were grown in the presence or absence of 2D-GPA, 10 μl samples were added to 2× sample buffer and boiled for 5 minutes. The samples were separated on a 12% SDS-PAGE and thereafter were blotted. The primary antibody used was anti maltose binding protein. The detection was performed with Phototope-HRP Western Blot Detection System (Cell Signaling Technology, MA, USA).

FHK12 bacterial membrane = test: Binding of NBD labeled peptide to bacterial membrane (confocal); assay type: cell-based; settings: NBD labeled peptide 500 nM
Experimental: The binding of 2D-GPA to the membrane of the FHK12 bacteria is a prerequisite for the interaction between the peptide and the GPA ToxR construct. In order to verify this binding, the bacteria were observed under a confocal microscope in the absence or presence of a NBD labeled 2D-GPA peptide at a 500 nM concentration. Experiments were done as follows: FHK12 bacteria were diluted 1:10000 and incubated with NBD labeled 2D-GPA, final concentration of 500 nM, for 30 seconds. Samples were fixed with Glutaraldehyde at a final concentration of 0.001% for 30 seconds, centrifuged and washed 3 times with fresh PBS. Confocal images were obtained using an Olympus IX70 FV500 confocal laser-scanning microscope. […] The confocal images were obtained at 12-bit resolution.

Tar-1 all-L NBD peptide = Tar-1 all-L NBD peptide (Escherichia coli, UniProt P07017); settings: donor Tar-1 all-L NBD peptide; acceptor-to-lipid ratio of 1:7500; PE/PG SUV
Experimental: To investigate the direct interaction between the two enantiomers of Tar-1 in an isolated in vitro system, fluorescence energy transfer (FRET) between fluorescently labeled Tar-1 wild-type peptide and its diastereomeric analog was measured. The assay was performed in a model lipid environment of small unilamellar vesicles (SUV) composed of negatively charged PE/PG lipids (7:3 w/w). This phospholipid composition is typical of the E. coli inner membrane. The Tar-1 peptides were labeled with NBD as the donor fluorophore or rhodamine-TAMRA as the acceptor fluorophore, and FRET was measured.

[5] = tested on: Tar-1 TM domain (ToxR-MalE chimera); settings: different concentrations of exogenous peptide, FIG. 9
Excerpt: The ToxR transcription activator can be used successfully to assess weak protein-protein interactions within the E. coli membrane. A Tar-1 TM domain encoding the DNA cassette was grafted between the ToxR transcription activator and the maltose binding protein in the ToxR-MalE plasmid. The plasmid was then transformed into E. coli FHK12 cells, which contain β-galactosidase, under the control of a ctx promoter. Dimerization of the TM domains, in this system, results in association and activation of the ToxR transcription activator, which then becomes active and is able to bind the ctx promoter. Quantification of the amount of homo-dimerization was done by measuring the activity of the β-galactosidase reporter gene and by normalizing it to the cell content (OD590) (miller units)
The ability of the Tar-1 peptides to disrupt the proper dimerization of the wild-type transmembrane (TM) domain was thus investigated by using the ToxR system. This TM assembly system can assess the dimerization of a specific TM domain grafted between the ToxR transcription activator and the maltose binding protein, MalE. […] The TM-TM interactions were monitored by measuring the activity of β-galactosidase in the presence of different concentrations of exogenous Tar-1 analog peptides.

[6] = tested on: HIV1 gp41 mediated viral fusion; settings: literature; cited from earlier work

In the case of `O=C(N[C@H](CO)[C@H](O)c1ccc([N+](=O)[O-])cc1)C(Cl)Cl` [chloramphenicol], the “cell density (growth) of the bacteria” value (CP362 containing pNT201) is reported as “zero growth”.

For “AVGIGALF [8-mer wild-type control peptide, reference compound]”, the “inhibition of HIV-1 mediated cell-cell fusion” value [1] was “completely devoid of inhibitory effect”.

With AVGIGALFLGFLG [reference compound] the “inhibition of HIV-1 mediated cell-cell fusion” value [1] was “completely devoid of inhibitory activity”.

With “AVGIGALFLGFLGAAGSTMGARSMTLTVQARQL [IFFA]” the “concentration showing significant inhibitory effect on cell-fusion” value ([1]; FIG. 2) was 10 ng/mL, the “inhibition compared with the wild-type peptide” value [1] was “identical to that of the wild-type (wt) fusion peptide” and the “association with wt-fusion peptide (energy transfer)” value [2] was “associate with the wt-fusion peptide”.

In the case of “AVGIGALFLGFLGAAGSTMGARSMTLTVQARQL [wt-fusion peptide]”, the “binding to T-cells” value (activated T-cells) is reported as “high affinity binding to T-cells”.

With D-L^669, W^670-DP178 [[D-LW]-DP178] the “inhibition compared with the wild-type peptide” value [1] was “more active than the wild-type DP178” and the “inhibition of HIV-1 mediated cell-cell fusion” value [1] was “inhibited the fusion”.

For D-S^649, Q^650-DP178 [[D-SQ]-DP178], the “inhibition of HIV-1 mediated cell-cell fusion” value [1] was “completely inactive”.

With “FFGAVIGTIALGVATSAQITAGIALAEAREAKR [fusion peptide of Sendai virus, reference compound]” the “inhibition of HIV-1 mediated cell-cell fusion” value [1] was “completely devoid of inhibitory activity”.

In the case of “ITLIIFGVMAGVIGT [2D-GPA, GPA transmembrane domain analog, L-valines at positions 80 and 84 replaced by their D-enantiomer]”, the “inhibition of ToxR GPA homodimer signal” value ([3]; exogenous peptide 0.5-20 μM) is reported as “concentration dependent inhibitory effect”, the IC50 ([3]; extrapolated from the fit to Langmuir equation, read-out: IC50 of the interaction with the integral GPA transmembrane domain) is reported as 290 nM and the “fluorescence energy transfer with wt-GPA” value (wt-GPA) is reported as “fluorescence energy transfer increased”. The “effect on expression levels of the ToxR GPA construct” value [4] was “no significant differences were detected” and the “localization in FHK12 bacteria” value (FHK12 bacterial membrane) was “localized in the bacterial membrane”.

For “KKITLIIFGVMAGVIGT (also: D-amino acids, which not given here) [SEQ ID NO:12, another diastereomeric GPA peptide]”, the “effect on expression levels of the ToxR GPA construct” value [4] was “did not affect the expression levels”.

In the case of “KKITLIIFGVMAGVIGT [all L GPA, reference compound]”, the IC50 ([3]; previous all L and all D GPA results fitted to this model, read-out: IC50 of the interaction with the GPA transmembrane domain) is reported as 360 nM.

In the case of “KKKMVLGVFALLQLISGSLKK (KKKMVLGVFALLQLISGSLKK-NH2; also: D-amino acids, which not given here) [Tar-1 diastereomer]”, the energy transfer (Tar-1 all-L NBD peptide) is reported as “about 30%” and the “inhibition of Tar-1 TM domain dimerization (β-galactosidase activity)” value [5] is reported as “interfered with the proper dimerization”.

In the case of “KKKMVLGVFALLQLISGSLKK [Tar-1 all-L, reference compound]”, the “inhibition of Tar-1 TM domain dimerization (β-galactosidase activity)” value ([5]; listed as Tar-1 all-L peptide) is reported as “inhibition profile similar to its diastereomeric counterpart”.

In the case of enfuvirtide, the “inhibition of viral fusion” value [6] is listed as “competent inhibitors of viral fusion”.
